Test: gradient 5% acetonitrile 3 min, to 50% in 2 min, to 85% in 15 min, held 3 min, 100 µL/min
Conditions: column: Zorbax Extend-C18 2.1 x 50 mm; eluents: water / acetonitrile, 0.1% formic acid
Method in brief: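 Mixtures of ~100 pure standards were chromatographed on a Zorbax Extend-C18 column (2.1 × 50 mm, 1.8 μm) at 100 μL/min using water and acetonitrile, each with 0.1% formic acid. Detection used a quadrupole time-of-flight mass spectrometer in positive and negative ionization mode, and data collection spanned 3 months. Retention time was obtained from adduct peaks picked computationally and each checked manually.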

Row | RP-LC retention time [s] | SMILES
1 | 722 | CCOc1ccccc1C1NC(=O)N(CC(=O)NC2CCCCC2)C2=C1C(=O)OC2 (configuration not stated)
2 | 583 | O=C(NCCc1ccccn1)C1CCCN(c2nnc3ccc(C(F)(F)F)cn23)C1 (configuration not stated)
3 | 659 | COc1cccc(C(O)CN2CCN(c3cccc(OC)c3)CC2)c1 (configuration not stated)
4 | 705 | O=S(=O)(Nc1ccc(Cn2cncn2)cc1)c1cccc(F)c1
5 | 632 | CCOC(=O)c1cnc(N2CCc3ccccc32)[nH]c1=O
6 | 731 | COc1ccc(CCNC(=O)c2ccc3c(c2)NC(=O)C2CCCCN32)cc1OC (configuration not stated)
7 | 632 | CCN(CC)c1cc(CNC(=O)Nc2cc(OC)ccc2OC)ccn1
8 | 728 | Cn1cc(C(=O)NCCN2CCCCC2)c(S(=O)(=O)N2CCN(c3ccc(Cl)cc3)CC2)n1
9 | 598 | CCN1CCN(CCNC(=O)c2cnc(-c3ccc(C)cc3)nc2-c2ccncc2)CC1
10 | 785 | CN(C)c1ccc(/C=C/c2ccc3ccccc3n2)cc1
11 | 620 | Cc1ccc(Cn2cc(-c3ccncc3)cc2C(=O)NC(C)c2ccccn2)cc1 (configuration not stated)
12 | 1070 | Cc1ccc2c(c1)N(Cc1cccc(F)c1)N=C(C(=O)N1CCC(C)CC1)S2(=O)=O
13 | 1200 | CC1CCC(NC(=O)c2sc3ncccc3c2-n2cccc2)CC1 (configuration not stated)
14 | 626 | CC1CCCCN1CCNC(=O)c1cc(=O)n2c(nc3ccccc32)s1 (configuration not stated)
15 | 732 | COc1ccccc1N1CCN(c2cc(SCC(=O)NCC3CCCO3)ncn2)CC1 (configuration not stated)
16 | 1010 | CC(C)(Oc1ccc(Cl)cc1)C(=O)OCn1nnc2ccccc2c1=O
17 | 773 | COc1cccc(NC(=O)N2CCC[C@@H]2C(=O)NCc2csc(-c3cccs3)n2)c1
18 | 695 | COc1cc(OC)c(NC(=O)N2CC(c3nc(C(C)C)nn3C)C2)cc1Cl

Row | RP-LC retention time [s] | SMILES
19 | 1150 | CSc1ccc(CNC(=O)C2CCCN(c3nc4c(s3)c(C)nn4-c3ccccc3)C2)cc1 (configuration not stated)
20 | 789 | Cc1cc2c(cc1S(=O)(=O)N1CCCC1C(=O)Nc1cccc(C)c1C)OCC(=O)N2 (configuration not stated)
21 | 696 | COc1ccc(OC)c(NC(=O)Nc2c(-c3cccc(C)c3)nc3ccccn23)c1
22 | 725 | COC(=O)c1c(NC(C)C)c2cccc(Cl)c2[nH]c1=O
23 | 1020 | Cc1cccc(NC(=O)CSc2cc(N3CCCC(C)C3)ncn2)c1 (configuration not stated)
24 | 638 | COc1ccc(-c2nc(C)cc(C)c2CNC(=O)C2CCCC2)cc1
25 | 745 | O=c1cc(CSc2nnc(-c3ccccc3F)o2)nc2sccn12
26 | 573 | CN(C)C(=O)c1cc2c(s1)CCC(C(=O)N1CCN(C3CCCC3)CC1)C2 (configuration not stated)
27 | 584 | O=C(CCn1c(=O)c2cccn2c2cccnc21)N1CCN(c2ccccn2)CC1
28 | 712 | CC(C)(C)C(=O)N1CCN(Cc2noc(-c3ccc(F)cc3)n2)CC1
29 | 617 | CC(=O)N1c2ccc(S(=O)(=O)N3CCCC3C(=O)Nc3cc(C)ccn3)cc2CC1C (configuration not stated)
30 | 808 | CCn1cnc2ccc(-c3noc(COc4cccc(C)c4)n3)cc21
31 | 746 | CCC(C)C(NC(=O)c1ccc(F)cc1)C(=O)Nc1nc2ccccc2[nH]1 (configuration not stated)
32 | 696 | COCc1nc2cccnc2n1C1CCN(C(=O)Nc2cc(OC)cc(OC)c2)CC1
33 | 1140 | COc1ccccc1N1CCN(c2ncccc2-c2nc(-c3ccccc3)no2)CC1
34 | 753 | COc1ccc(C)cc1NC(=O)N1CC(c2nc(C)no2)C2(CCOCC2)C1 (configuration not stated)
35 | 1040 | Cc1cccc(NS(=O)(=O)c2c(C)sc(C)c2-c2n[nH]c(C)c2C)c1
36 | 701 | O=C(CCc1c(-c2ccc(Br)cc2)nc2ccccn12)NCc1ccc(F)cc1

Row | SMILES | RP-LC retention time [s]
37 | CCCN(CCC)[C@@H]1CCc2ccc(O)cc2C1 | 671

— the METLIN SMRT retention time set (Domingo-Almenara et al. 2019)
